Measurements as given in patent publication US9309221B2, “1-substituted indazole derivative” (Dainippon Sumitomo Pharma Co., Ltd., priority 2012, dated 2016).

Target: T1, human α7 nAChR (Homo sapiens, UniProt P36544)
T1 construct: expressed in transfected cells; host or cells: GH4C1 cells (rat pituitary, ATCC CCL-82.2)
Test: Evaluation of PAM activity with human α7 nACh receptor stably expressing cells (aequorin luminescence, FDSS7000)
Type: cell-based
Settings: ACh at EC20; for α7PAM (%) @ 10 μmol/L: test compound 10 μmol/L, ratio of RLU (Max-Min) of test-compound wells to control wells, human α7 nAChR expressing GH4C1 cells; for PAM activity for α7 nAChR (in words): ratio of RLU (Max-Min) of test wells to control wells
From the text: Evaluation of PAM Activity with Human α7 nACh Receptor Stably Expressing Cells
(1) Human α7 nAChR stably expressing cells
Human α7 nAChR stably expressing cells were generated and cultured. In detail, GH4C1 cells derived from rat pituitary (cat#CCL-82.2, ATCC, USA) were used as a host cell. PcDNA3.1Zeo vector containing a nucleotide sequence encoding a protein GenBank BAC81731 and pcDNA3.1 vector containing human α7 nAChR gene (cat#V790-20, invitrogen, Carlsbad, Calif., USA) were transfected to the cells to give aequorins and human α7 nAChR stably expressing cells respectively. The aequorins and human α7 nAChR stably expressing cells were screened with Zeocin (cat#R25001, invitrogen, Carlsbad, Calif., USA) and Geneticin (cat#10131-027, invitrogen, Carlsbad, Calif., USA) respectively.
The cells were cultured in F-10 Nutrient Mixture (Ham) medium (cat#11550-043, invitrogen, Carlsbad, Calif., USA) containing 2.5% fetal bovine serum (cat#2917354, ICN Biomedicals, Inc, USA), 15% inactivated horse serum (cat#26050-088, invitrogen, Carlsbad, Calif., USA), 1 μg/mL Geneticin, and 5 μg/mL Puromycin (cat#14861-84, invitrogen, Carlsbad, Calif., USA), in a Collagen Type 1-coated dish (cat#4030-010, iwaki, Tokyo, Japan). During the culture, the medium was replaced with fresh medium in every 2 to 3 days, and the cells were treated with TrypLE Express (cat#45604-021, invitrogen, Carlsbad, Calif., USA) to collect them in every 7 days. Thus, the cells were subcultured.
7 Days after subculturing, the cells were treated with TrypLE Express to collect them when they were about 80% confluent. The cells were suspended in a reaction medium containing Hanks (cat#14065-056, invitrogen, Carlsbad, Calif., USA)/20 mmol/L Hepes (cat#15630-080, invitrogen, Carlsbad, Calif., USA), Buffer (pH 7.4), F-10 Nutrient Mixture (Ham), and 0.1 mg/mL Geneticin, and the suspension was seeded in a 384-well plate (cat#781090, Greiner, Germany) at 20000 cells/25 μL per well.
On the next day after seeding, Viviren (cat#E649X, Promega, Madison, Wis., USA) was added to the medium so that the final concentration could be 4 μmol/L (15 μL/well). The plates were centrifuged and then placed in the dark for 4 hours at room temperature.
(2) Preparation of the Test Samples
Each of the test compounds was dissolved in DMSO to prepare each test sample at a concentration of 1000-fold the final concentration. To the solution was added Hanks/20 mM HEPES/0.2% BSA (cat#A3803, Sigma, St. Louis, Mo., USA), and the concentration was adjusted to 6-fold the final concentration.
(3) Evaluation of PAM Activity
FDSS7000 (Hamamatsu Photonics) was used to detect the luminescence signal evoked by α7 nAChR stimulation. The cells and a luminescent substrate were put on a plate, and the test sample was added thereto. […] After the addition of ACh, the luminescence signal (the central wavelength: 465 nm) was measured for 138 seconds to calculate RLU (Max-Min). The ratio of the RLU (Max-Min) of the test-compound-containing wells to that of the control wells was defined as PAM activity.

T1 sequence (P36544 23-502): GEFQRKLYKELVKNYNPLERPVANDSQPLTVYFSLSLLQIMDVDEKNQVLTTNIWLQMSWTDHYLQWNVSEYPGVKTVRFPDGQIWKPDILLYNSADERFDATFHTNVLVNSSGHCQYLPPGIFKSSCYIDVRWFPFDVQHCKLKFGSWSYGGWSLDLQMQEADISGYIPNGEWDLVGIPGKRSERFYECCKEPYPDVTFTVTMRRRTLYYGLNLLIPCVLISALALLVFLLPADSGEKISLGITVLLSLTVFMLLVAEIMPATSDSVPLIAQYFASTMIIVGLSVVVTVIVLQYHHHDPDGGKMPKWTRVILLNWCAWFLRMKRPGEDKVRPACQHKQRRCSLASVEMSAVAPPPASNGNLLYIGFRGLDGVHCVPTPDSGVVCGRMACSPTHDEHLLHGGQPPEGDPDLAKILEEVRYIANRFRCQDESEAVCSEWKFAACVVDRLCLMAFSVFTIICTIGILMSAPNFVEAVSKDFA

| SMILES | α7PAM (%) @ 10 μmol/L [%] | PAM activity for α7 nAChR (in words) |
| --- | --- | --- |
| CCOc1ccc2c(cnn2C2CCN(C(=O)NC3CCC(F)(F)CC3)CC2)c1 [Example 27, N-(4,4-difluorocyclohexyl)-4-(5-ethoxy-1H-indazol-1-yl)piperidine-1-carboxamide] | 1673 |  |
| CO[C@H]1CC[C@H](NC(=O)N2CCC(n3ncc4cc(-c5ccc(F)cc5)ccc43)CC2)CC1 [Example 155] | 210 |  |
| CCc1ccc2c(cnn2[C@H]2CC[C@@H](NC(=O)C3CCC(F)(F)CC3)CC2)c1 [Example 4, N-(cis-4-(5-ethyl-1H-indazol-1-yl)cyclohexyl)-4,4-difluorocyclohexanecarboxamide] | 2344 | stronger PAM activity than others |
| CCc1ccc2c(cnn2C2CCN(C(=O)N[C@H]3CC[C@H](OC)CC3)CC2)c1OC [Example 255, 4-(5-ethyl-4-methoxy-1H-indazol-1-yl)-N-(trans-4-methoxycyclohexyl)piperidine-1-carboxamide] | 1096 |  |
| Cc1ccc2c(cnn2C2CCN(C(=O)NC3CCC(F)(F)CC3)CC2)c1 [Example 13, N-(4,4-difluorocyclohexyl)-4-(5-methyl-1H-indazol-1-yl)piperidine-1-carboxamide] | 3399 | stronger PAM activity than others |
| CC(C)Oc1ccc2c(cnn2C2CCN(C(=O)NC3CCCCC3)CC2)c1 [Example 48, N-cyclohexyl-4-(5-isopropoxy-1H-indazol-1-yl)piperidine-1-carboxamide] | 1202 |  |
| CCc1ccc2c(cnn2[C@H]2CC[C@@H](NC(=O)NC3CCC(F)(F)CC3)CC2)c1 [Example 5, 1-(4,4-difluorocyclohexyl)-3-(cis-4-(5-ethyl-1H-indazol-1-yl)cyclohexyl)urea] | 1368 |  |
| COCc1nn(C2CCN(C(=O)NC3CCCCC3)CC2)c2ccc(C)cc12 [Example 68] | 430 |  |
| COc1ccc2c(cnn2C2CCN(C(=O)NC3CCC(F)(F)CC3)CC2)c1 [Example 41, N-(4,4-difluorocyclohexyl)-4-(5-methoxy-1H-indazol-1-yl)piperidine-1-carboxamide] | 3749 | stronger PAM activity than others |
| O=C(C1CCOCC1)N1CCC(n2ncc3cc(F)ccc32)CC1 [Example 104] | 190 |  |
| COCc1c(C)ccc2c1cnn2C1CCN(C(=O)NC2CCC(F)(F)CC2)CC1 [Example 213] | 800 |  |
| COC1CCC(NC(=O)N2CCC(n3ncc4c(Br)cccc43)CC2)CC1 (centres unmarked) [Example 98] | 89 |  |
| COC(C)c1c(C)ccc2c1cnn2C1CCN(C(=O)NC2CCC(F)(F)CC2)CC1 (centres unmarked) [Example 232] | 860 |  |
| CCOc1cccc2c1cnn2C1CCN(C(=O)N[C@H]2CC[C@@H](OC)CC2)CC1 [Example 184] | 200 |  |
| CO[C@H]1CC[C@H](NC(=O)N2CCC(n3ncc4cc(OC(F)F)ccc43)CC2)CC1 [Example 291, 4-[5-(difluoromethoxy)-1H-indazol-1-yl]-N-(trans-4-methoxycyclohexyl)piperidine-1-carboxamide] | 1433 |  |
| COCCCc1ccc2c(cnn2C2CCN(C(=O)N[C@H]3CC[C@H](OC)CC3)CC2)c1 [Example 32] | 430 |  |
| COc1c(C(F)(F)F)ccc2c1cnn2C1CCN(C(=O)NC2CCC(OC)CC2)CC1 (centres unmarked) [Example 317] | 360 |  |
| CCOc1ccc2c(cnn2C2CCN(C(=O)NC3CCCCC3)CC2)c1 [Example 18, N-cyclohexyl-4-(5-ethoxy-1H-indazol-1-yl)piperidine-1-carboxamide] | 6779 | stronger PAM activity than others |

| SMILES | α7PAM (%) @ 10 μmol/L [%] | PAM activity for α7 nAChR (in words) |
| --- | --- | --- |
| O=C(NC1CCC(F)(F)CC1)N1CCC(n2ncc3c(OC(F)F)cccc32)CC1 [Example 201] | 370 |  |
| CCc1ccc2c(cnn2C2CCN(C(=O)NC3CCCOC3)CC2)c1 (centres unmarked) [Example 22, 4-(5-ethyl-1H-indazol-1-yl)-N-(tetrahydro-2H-pyran-3-yl)piperidine-1-carboxamide] | 1425 |  |
| Cc1ccc2c(cnn2C2CCN(C(=O)N[C@H]3CCCCC3(F)F)CC2)c1 [Example 79, (S)—N-(2,2-difluorocyclohexyl)-4-(5-methyl-1H-indazol-1-yl)piperidine-1-carboxamide] | 1064 |  |
| CO[C@H]1CCC[C@H](NC(=O)N2CCC(n3ncc4cc(C5CC5)ccc43)CC2)C1 [Example 211, 4-(5-cyclopropyl-1H-indazol-1-yl)-N-[(1S,3S)-3-methoxycyclohexyl]piperidine-1-carboxamide] | 1034 |  |
| Cc1ccc2c(cnn2C2CCN(C(=O)NC3CCC(OCC(F)(F)F)CC3)CC2)c1 (centres unmarked) [Example 83] | 420 |  |
| CCCc1ccc2c(cnn2C2CCN(C(=O)NC3CCC(OC)CC3)CC2)c1 (centres unmarked) [Example 76] | 420 |  |
| CCc1ccc2c(cnn2C2CCN(C(=O)C3CCOCC3)CC2)c1 [Example 111] | 410 |  |
| CCOc1ccc2c(cnn2C2CCN(C(=O)NC3CCCC3)CC2)c1 [Example 17] |  | stronger PAM activity than others |
| CCc1ccc2c(cnn2C2CCN(C(=O)NC3CCCC3)CC2)c1 [Example 20] |  | stronger PAM activity than others |
| O=C(NC1CCC(F)(F)CC1)N1CCC(n2ncc3cc(OC4CC4)ccc32)CC1 [Example 249, 4-[5-(cyclopropoxy)-1H-indazol-1-yl]-N-(4,4-difluorocyclohexyl)piperidine-1-carboxamide] | 1463 |  |
| COc1ccc2c(cnn2C2CCN(C(=O)NC3CCCCC3)CC2)c1 [Example 40] |  | stronger PAM activity than others |
| O=C(NC1CCOCC1)N1CCC(n2ncc3c(OC(F)(F)F)cccc32)CC1 [Example 304] | 380 |  |
| CCc1ccc2c(cnn2C2CCN(C(=O)NC3CCOCC3)CC2)c1OC [Example 275, 4-(5-ethyl-4-methoxy-1H-indazol-1-yl)-N-(tetrahydro-2H-pyran-4-yl)piperidine-1-carboxamide] | 1093 |  |
| CO[C@H]1CC[C@H](NC(=O)N2CCC(n3ncc4c(C)c(C)ccc43)CC2)CC1 [Example 225] | 480 |  |
| CCc1cccc2c1cnn2C1CCN(C(=O)NC2CCC(F)(F)CC2)CC1 [Example 64, N-(4,4-difluorocyclohexyl)-4-(4-ethyl-1H-indazol-1-yl)piperidine-1-carboxamide] | 1133 |  |
| COCC1CCC(NC(=O)N2CCC(n3ncc4cc(C)ccc43)CC2)CC1 (centres unmarked) [Example 220] |  | stronger PAM activity than others |
| CCc1ccc2c(cnn2C2CCN(C(=O)N[C@H]3CC[C@H](OC)CC3)CC2)c1 [Example 16, 4-(5-ethyl-1H-indazol-1-yl)-N-(trans-4-methoxycyclohexyl)piperidine-1-carboxamide] | 1764 |  |
| Cc1ccc2c(cnn2C2CCN(C(=O)NC3CCCCC3)CC2)c1 [Example 8, N-cyclohexyl-4-(5-methyl-1H-indazol-1-yl)piperidine-1-carboxamide] | 3053 | stronger PAM activity than others |
